In US20140079632A1, “ACTIVITY-BASED PROBES FOR THE UROKINASE P[…]” (UNIVERSITEIT ANTWERPEN, priority 2011, published 2014):

Key:
Type in all cases: biochemical
uPA [1] = biological target: T1, uPA (Homo sapiens, UniProt P00749); assay: uPA inhibition: in vitro evaluation, IC50 with chromogenic substrate Biophen CS-61(44); details: 15 min preincubation at 37° C.; Tris buffer pH 8.8; 250 μM substrate
T1 construct: purchased Nodia
Method: Enzymatic activity was measured at 37° C. in a Spectramax 340 (Molecular Devices) microtiter plate reader using the chromogenic substrate Biophen CS-61(44) (LpyroGlu-Gly L-Arg-p-NA.HCl), with a Km of 80 μM.
(§1) The substrate and human enzyme were obtained from Nodia. The reaction was monitored at 405 nm, and the initial rate was determined between 0 and 0.25 absorbance units in 20 min. The reaction mixture contained 250 μM substrate and approximately 1 mU of enzyme in 145 μL of buffer in a final volume of 200 μL. A 50 mM Tris buffer, pH 8.8, was used. From each inhibitor concentration, 5 μL was added, obtaining a final concentration from 0 to 250 μM in a total volume of 0.2 mL. Activity measurements were routinely performed in duplicate. […] IC50 values were obtained by fitting the data with the four-parameter logistics equation using Grafit 5.
where s=slope factor, v=rate, I0=inhibitor concentration, and range=the fitted uninhibited value minus the background. The equation assumes the y falls with increasing x.
(§2) Inhibitor stock solutions were prepared in DMSO and stored at −20° C. Because the compounds described in this paper completely inactivate uPA following pseudofirst-order kinetics, the IC50 value is inversely correlated with the second-order rate constant of inactivation. For a simple pseudofirst-order inactivation process, the activity after incubation with inhibitor (vi) varies with the inhibitor concentration (i), as described in the following equation: […]

uPA [2] = biological target: T1, uPA; assay: uPA inactivation kinetics from progress curves (kobs versus inhibitor concentration, kapp); details: 250 μM substrate, 37° C.
Method: as §2
where vo is the activity in absence of inhibitor, k is the second-order rate constant of inactivation, and t is the time. The inactivation rate constant was determined from the time course of inhibition.
The inhibitor was mixed with the substrate (250 μM final concentration), and the buffer solution with the enzyme was added at the time zero. The inhibitor concentrations were chosen to obtain total inhibition of the enzyme within 20 min. The progress curves show the absorbance of p-nitroanilide produced as a function of time. Initially, no inhibitor is bound to the enzyme, and the tangent to the progress curve (dA/dt) is proportional to the concentration of the free enzyme. The concentration of free enzyme decreases over time due to the kinetics of inhibitor binding, as described above. Progress curves were recorded in pseudofirst-order conditions ([I]0>>[E]0) and with less than 10% conversion of the substrate during the entire time course. In these conditions, dA/dt decreases exponentially with time. The progress curves were fitted with the integrated rate equation to yield a value for kobs, a pseudofirst-order rate constant
At=v0[1−e^−k^obs^t]/kobs+A0
where At=absorbance at time t, A0=absorbance at time zero, and v0=uninhibited initial rate.
The apparent second-order rate constant (kapp) was calculated from the slope of the linear part of the plot of kobs versus the inhibitor concentration ([I]0). In case of competition between the inhibitor and the substrate, kapp is smaller than the “real” second order rate constant k discussed above because a certain fraction of the enzyme is present as an enzyme-substrate complex. kapp depends on the substrate concentration used in the experiment, as described by Lambeir et al.^40 For most final compounds, the kobs versus [I]0 plot was not linear, but could be fitted with a hyperbolic function: kobs=k2[I]0/(K1+[I]0) (two step mechanism). Where K1 is the dissociation constant of the reversible enzyme-inhibitor complex and k2 is the first-order rate constant associated with irreversible modification of the enzyme. A kapp could be calculated as k2/K1.

[3] = biological target: T2, thrombin (from human plasma) (Homo sapiens, UniProt P00734); assay: Selectivity: thrombin inhibition, substrate Biophen CS-21(66); details: 15 min preincubation; Tris buffer pH 8.3; 580 μM substrate
T2 construct: thrombin (from human plasma, Sigma); purchased Sigma; host or cells: human plasma
Method: as §1, with “The reaction mixture contained 250 μM substrate and approximately 1 mU of enzyme in 145 μL of buffer in a final volume of 200 μL.” left out
(§3) The IC50 values for plasmin (from human plasma, Sigma), tPA (recombinant, Nodia), thrombin (from human plasma, Sigma), and FXa were determined in the same way as for uPA.
(§4) For tPA and thrombin, Tris buffer, pH 8.3, was used, for FXa, Tris buffer, pH 8.3, for plasmin, Tris buffer, pH 7.4, was used.

[4] = biological target: T3, plasmin (from human plasma) (Homo sapiens, UniProt P00747); assay: Selectivity: plasmin inhibition, substrate Biophen CS-21(66); details: 15 min preincubation; Tris buffer pH 7.4; 580 μM substrate
T3 construct: purchased Sigma; host or cells: human plasma
Method: as §1, with “The reaction mixture contained 250 μM substrate and approximately 1 mU of enzyme in 145 μL of buffer in a final volume of 200 μL.” left out
as §3, §4

tPA (recombinant) = biological target: T4, tPA (recombinant) (Homo sapiens, UniProt P00750); assay: Selectivity: tPA inhibition, substrate Biophen CS-05(88); details: for IC50: 15 min preincubation, Tris buffer pH 8.3, 1.25 mM substrate
T4 construct: purchased Nodia
Method: as §1, with “The reaction mixture contained 250 μM substrate and approximately 1 mU of enzyme in 145 μL of buffer in a final volume of 200 μL.” left out
as §3, §4

FXa = FXa (Homo sapiens, UniProt P00742); assay: Selectivity: FXa inhibition, substrate Biophen CS-11(32); details: for IC50: 15 min preincubation, Tris buffer pH 8.3, 522 μM substrate; for FXa % (I) @ 250: at 250 (μM)
[5] = apparent second-order rate constant from slope of kobs versus [I]0, no asterisk
[6] = asterisked: compound showed a two-step mechanism, kapp calculated as k2/K1

T3 sequence (P00747 581-810 limits assumed): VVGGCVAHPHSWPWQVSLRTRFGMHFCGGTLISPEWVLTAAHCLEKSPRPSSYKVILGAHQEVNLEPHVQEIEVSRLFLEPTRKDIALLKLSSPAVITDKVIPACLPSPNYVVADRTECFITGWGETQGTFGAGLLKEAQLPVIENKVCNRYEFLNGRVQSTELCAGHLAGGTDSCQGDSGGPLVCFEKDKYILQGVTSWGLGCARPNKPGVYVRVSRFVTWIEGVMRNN
T3 sequence (P00747 97-580 partner limits assumed): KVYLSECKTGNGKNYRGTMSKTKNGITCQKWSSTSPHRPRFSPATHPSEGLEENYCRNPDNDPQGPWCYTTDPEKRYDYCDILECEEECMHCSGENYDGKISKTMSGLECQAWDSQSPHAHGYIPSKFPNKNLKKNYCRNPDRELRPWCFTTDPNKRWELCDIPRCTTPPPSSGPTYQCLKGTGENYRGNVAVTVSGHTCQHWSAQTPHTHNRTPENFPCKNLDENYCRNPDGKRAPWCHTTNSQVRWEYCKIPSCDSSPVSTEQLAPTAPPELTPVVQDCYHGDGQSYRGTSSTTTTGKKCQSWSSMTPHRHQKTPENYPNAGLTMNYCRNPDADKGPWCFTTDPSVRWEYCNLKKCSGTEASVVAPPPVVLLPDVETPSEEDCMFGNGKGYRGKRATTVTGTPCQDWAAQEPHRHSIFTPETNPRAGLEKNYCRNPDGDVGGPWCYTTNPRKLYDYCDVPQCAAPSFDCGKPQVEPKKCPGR
Chain of FXa (P00742 235-488 limits assumed): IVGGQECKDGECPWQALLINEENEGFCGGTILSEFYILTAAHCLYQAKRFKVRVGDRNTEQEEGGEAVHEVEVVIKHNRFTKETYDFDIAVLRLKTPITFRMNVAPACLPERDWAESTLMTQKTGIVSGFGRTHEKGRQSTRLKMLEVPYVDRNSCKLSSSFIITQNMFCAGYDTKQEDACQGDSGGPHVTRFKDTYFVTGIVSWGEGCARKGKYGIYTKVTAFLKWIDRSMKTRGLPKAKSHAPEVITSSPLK
Chain of FXa (P00742 41-179 partner limits assumed): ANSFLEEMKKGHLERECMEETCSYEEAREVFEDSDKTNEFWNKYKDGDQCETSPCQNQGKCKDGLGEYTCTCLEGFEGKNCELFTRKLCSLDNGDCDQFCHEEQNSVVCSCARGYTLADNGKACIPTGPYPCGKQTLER
T4 sequence (P00750 36-562, species assumed): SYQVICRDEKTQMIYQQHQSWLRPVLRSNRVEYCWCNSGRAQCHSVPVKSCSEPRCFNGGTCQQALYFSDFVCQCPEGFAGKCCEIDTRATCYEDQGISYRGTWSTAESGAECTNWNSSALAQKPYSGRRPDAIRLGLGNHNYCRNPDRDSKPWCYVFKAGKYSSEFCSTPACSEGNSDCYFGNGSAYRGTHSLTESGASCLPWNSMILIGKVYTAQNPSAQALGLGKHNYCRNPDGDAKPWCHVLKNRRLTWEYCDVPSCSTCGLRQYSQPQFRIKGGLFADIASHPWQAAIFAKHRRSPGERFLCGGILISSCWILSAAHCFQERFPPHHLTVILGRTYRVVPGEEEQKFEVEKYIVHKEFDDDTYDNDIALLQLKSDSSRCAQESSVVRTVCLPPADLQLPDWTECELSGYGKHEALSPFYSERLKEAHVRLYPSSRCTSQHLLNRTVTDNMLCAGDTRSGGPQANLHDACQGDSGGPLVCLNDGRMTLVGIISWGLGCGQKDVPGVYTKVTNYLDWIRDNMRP

| Compound | IC50 (uPA [1]) | uPA: kapp (uPA [2]; [5]) | IC50 [3] | IC50 [4] | IC50 (tPA (recombinant)) | FXa % @ 2.5 (FXa; at 2.5 (μM)) | IC50 (FXa) | uPA: kapp (uPA [2]; [6]) | FXa % (I) @ 250 (FXa) | tPA % I @ 250 (tPA (recombinant); at 250 (μM)) |
| --- | --- | --- | --- | --- | --- | --- | --- | --- | --- | --- |
| 2-((1E,3E,5E)-5-(1-(6-((2-(4-(3-(((1-(diphenoxyphosphoryl)-2-(4-guanidino phenyl)ethyl)carbamoyl)oxy)propyl)-1H-1,2,3-triazol-1-yl)ethyl)amino)-6-oxohexyl)-3,3-dimethyl indolin-2-ylidene)penta-1,3-dien-1-yl)-1,3,3-trimethyl-3H-indol-1-ium [Final compound 9] | 0.0589 ± 0.0017 µM | 1600 ± 100 M⁻¹ s⁻¹ | > 2.5 µM | > 2.5 µM | – | – | – | – | – | – |
| CCN(CC)c1ccc2c(-c3ccccc3C(=O)N3CCN(C(=O)CCCCCCCn4cc(COCCOC(=O)NC(Cc5ccc(NC(=N)N)cc5)P(=O)(Oc5ccccc5)Oc5ccccc5)nn4)CC3)c3ccc(=[N+](CC)CC)cc-3oc2c1.O=C(O)C(F)(F)F.[Cl-] (stereo not drawn) [Final compound 1, 2,2,2-trifluoroacetic acid, N-(6-(diethylamino)-9-(2-(4-(8-(4-((2-(((1-(diphenoxyphosphoryl)-2-(4-guanidinophenyl)ethyl)carbamoyl)oxy)ethoxy)methyl)-1H-1,2,3-triazol-1-yl)octanoyl)piperazine-1-carbonyl)phenyl)-3H-xanthen-3-ylidene)-N-ethylethanaminium chloride] | 0.017 ± 0.002 µM | 1700 ± 100 M⁻¹ s⁻¹ | 7.9 ± 1.7 µM | 5.4 ± 0.6 µM | 7.9 ± 0.3 µM | 11% @ 2.5 | – | – | – | – |
| CCN(CC)c1ccc2c(-c3ccccc3C(=O)N3CCN(C(=O)CCCCCCCn4cc(COCCOCCOC(=O)NC(Cc5ccc(NC(=N)N)cc5)P(=O)(Oc5ccccc5)Oc5ccccc5)nn4)CC3)c3ccc(=[N+](CC)CC)cc-3oc2c1 (stereo not drawn) [Final compound 2, 2,2,2-trifluoroacetic acid, N-(6-(diethylamino)-9-(2-(4-(8-(4-(11-(diphenoxyphosphoryl)-12-(4-guanidinophenyl)-9-oxo-2,5,8-trioxa-10-azadodecyl)-1H-1,2,3-triazol-1-yl)octanoyl)piperazine-1-carbonyl)phenyl)-3H-xanthen-3-ylidene)-N-ethylethanaminium chloride] | 0.019 ± 0.003 µM | 1300 ± 70 M⁻¹ s⁻¹ | 24 ± 21 µM | 5.4 ± 1.6 µM | 33 ± 13 µM | – | 176 ± 128 µM | – | – | – |
| CCN(CC)c1ccc2c(-c3ccccc3C(=O)N3CCN(C(=O)CCCCCCCn4cc(COCCOCCOCCOC(=O)NC(Cc5ccc(NC(=N)N)cc5)P(=O)(Oc5ccccc5)Oc5ccccc5)nn4)CC3)c3ccc(=[N+](CC)CC)cc-3oc2c1 (stereo not drawn) [Final compound 3, 2,2,2-trifluoroacetic acid, N-(6-(diethylamino)-9-(2-(4-(8-(4-(14-(diphenoxyphosphoryl)-15-(4-guanidinophenyl)-12-oxo-2,5,8,11-tetraoxa-13-azapentadecyl)-1H-1,2,3-triazol-1-yl)octanoyl)piperazine-1-carbonyl)phenyl)-3H-xanthen-3-ylidene)-N-ethylethanaminium chloride] | 0.03 ± 0.006 µM | 2600 ± 200 M⁻¹ s⁻¹ | 13.8 ± 1.3 µM | 11 ± 4 µM | 42 ± 5 µM | – | 39 ± 22 µM | – | – | – |
| CCN(CC)c1ccc2c(-c3ccccc3C(=O)N3CCN(C(=O)CCCCCCCn4cc(CCCOC(=O)NC(Cc5ccc(NC(=N)N)cc5)P(=O)(Oc5ccccc5)Oc5ccccc5)nn4)CC3)c3ccc(=[N+](CC)CC)cc-3oc2c1.O=C(O)C(F)(F)F.[Cl-] (stereo not drawn) [Final compound 4, 2,2,2-trifluoroacetic acid, N-(6-(diethylamino)-9-(2-(4-(8-(4-(3-(((1-(diphenoxyphosphoryl)-2-(4-guanidinophenyl)ethyl)carbamoyl)oxy)propyl)-1H-1,2,3-triazol-1-yl)octanoyl)piperazine-1-carbonyl)phenyl)-3H-xanthen-3-ylidene)-N-ethylethanaminium chloride] | 0.025 ± 0.007 µM | 4900 ± 90 M⁻¹ s⁻¹ | 3.5 ± 0.8 µM | 4.6 ± 2.3 µM | 8 ± 1 µM | – | 65 ± 14 µM | – | – | – |
| CCN(CC)c1ccc2c(-c3ccccc3C(=O)N3CCN(C(=O)CCCCCCCn4cc(CCCOC(=O)NC(Cc5ccc(NC(=N)N)cc5)P(=O)(Oc5ccc(NC(C)=O)cc5)Oc5ccc(NC(C)=O)cc5)nn4)CC3)c3ccc(=[N+](CC)CC)cc-3oc2c1.O=C(O)C(F)(F)F.[Cl-] (stereo not drawn) [Final compound 5, 2,2,2-trifluoroacetic acid, N-(9-(2-(4-(8-(4-(3-(((1-(bis(4-acetamidophenoxy)phosphoryl)-2-(4-guanidinophenyl)ethyl)carbamoyl)oxy)propyl)-1H-1,2,3-triazol-1-yl)octanoyl)piperazine-1-carbonyl)phenyl)-6-(diethylamino)-3H-xanthen-3-ylidene)-N-ethylethanaminium chloride] | 0.022 ± 0.002 µM | – | 5.2 ± 0.2 µM | 5.6 ± 1.5 µM | > 62 µM | – | – | 52 × 10^2 ± 1 × 10^2 * M^−1 s^−1 | 90% @ 250 | – |
| CC1=CC(C)=[N+]2C1=C(CCCCCCCn1cc(CCCOC(=O)NC(Cc3ccc(NC(=N)N)cc3)P(=O)(Oc3ccccc3)Oc3ccccc3)nn1)c1c(C)cc(C)n1[B-]2(F)F.O=C(O)C(F)(F)F (stereo not drawn) [Final compound 6, 10-(7-(4-(3-(((1-(diphenoxyphosphoryl)-2-(4-guanidinophenyl)ethyl)carbamoyl)oxy)propyl)-1-1,2,3-triazol-1-yl)heptyl)-5,5-difluoro-1,3,7,9-tetramethyl-5H-dipyrrolo[1,2-c:2′,1′-f][1,3,2]diazaborinin-4-ium-5-uide 2,2,2-trifluoroacetate] | 0.0467 ± 0.0015 µM | – | ~125 µM | 0.674 ± 0.123 µM | – | – | – | 12.2 × 10^2 ± 0.5 × 10^2 * M^−1 s^−1 | 19% I @ 250 ^ | 19% I @ 250 |
| O=C(O)C(F)(F)F.[N-]=[N+]=NCCOCCOCCOC(=O)NC(Cc1ccc(NC(=N)N)cc1)P(=O)(Oc1ccccc1)Oc1ccccc1 (stereo not drawn) [Intermediate 61, 2-(2-(2-azidoethoxy)ethoxy)ethyl 1-(diphenoxyphosphoryl)-2-(4-guanidinophenyl)ethylcarbamate 2,2,2-trifluoroacetate] | 0.015 ± 0.002 µM | – | 13 µM | 5.7 ± 0.6 µM | – | – | – | 10 × 10^3 ± 4 × 10^3 * M^−1 s^−1 | 51% @ 250 | – |
